Data published in patent US8546352B2, “Pharmacological preparation for topical use containing N-palmitoyl-vanillamide” (Epitech Group S.r.l., priority 2010, dated 2013).

Tests used:
[1] = test system: capsaicin-induced eye-wiping movements in mice; test: Eye-wiping assay in mice, effect on capsaicin-induced wiping; format: in vivo, mouse; details: for Capsaicin-induced wiping movements after Palvanil: same eye
[2] = test system: eye-wiping movements in mice; details: mouse
[3] = biological target: T1, recombinant human TRPV1 (HEK-293 cells) (Homo sapiens, UniProt Q8NER1); test: TRPV1-mediated elevation of intracellular [Ca2+] (agonist activity); format: cell-based
T1 construct: expressed in transfected cells
T1 sequence (Q8NER1 whole entry): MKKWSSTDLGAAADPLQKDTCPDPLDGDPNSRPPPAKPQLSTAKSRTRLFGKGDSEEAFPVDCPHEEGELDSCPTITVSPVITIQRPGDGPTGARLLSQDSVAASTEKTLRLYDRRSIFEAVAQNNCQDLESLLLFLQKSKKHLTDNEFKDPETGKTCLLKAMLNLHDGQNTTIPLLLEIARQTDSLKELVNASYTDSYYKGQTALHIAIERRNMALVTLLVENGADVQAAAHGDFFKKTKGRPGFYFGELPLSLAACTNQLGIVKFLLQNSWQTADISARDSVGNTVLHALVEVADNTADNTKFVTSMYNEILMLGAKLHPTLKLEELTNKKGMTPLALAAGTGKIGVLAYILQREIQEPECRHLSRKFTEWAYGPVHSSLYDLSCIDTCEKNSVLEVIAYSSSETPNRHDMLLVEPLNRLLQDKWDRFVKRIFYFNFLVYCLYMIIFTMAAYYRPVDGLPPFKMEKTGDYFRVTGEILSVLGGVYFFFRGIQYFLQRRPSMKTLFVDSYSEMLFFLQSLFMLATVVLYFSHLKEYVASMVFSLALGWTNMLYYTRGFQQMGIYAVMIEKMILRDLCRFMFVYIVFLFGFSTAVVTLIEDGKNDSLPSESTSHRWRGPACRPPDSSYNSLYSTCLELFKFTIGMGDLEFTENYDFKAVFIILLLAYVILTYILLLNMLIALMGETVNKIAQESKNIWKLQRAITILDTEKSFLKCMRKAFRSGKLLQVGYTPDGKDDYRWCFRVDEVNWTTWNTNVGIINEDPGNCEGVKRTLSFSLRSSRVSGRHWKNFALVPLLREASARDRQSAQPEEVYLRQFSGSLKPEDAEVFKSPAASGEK

[4] = biological target: T1, recombinant human TRPV1 (HEK-293 cells); test: Desensitization of capsaicin (10 nM)-induced TRPV1-mediated elevation of intracellular [Ca2+]; format: cell-based
[5] = biological target: T1, recombinant human TRPV1 (HEK-293 cells); test: Desensitization of anandamide/low pH-induced TRPV1-mediated elevation of intracellular [Ca2+]; format: cell-based; details: for IC50: read-out: IC50, desensitization of anandamide effect

For `C=C(C)[C@]12C[C@@H](C)[C@@]34O[C@](Cc5ccccc5)(O[C@@H]1[C@@H]3C=C(COC(=O)Cc1cc(I)c(O)c(OC)c1)C[C@]1(O)C(=O)C(C)=C[C@@H]41)O2` [I-RTX, 5′-iodo-resiniferatoxin, reference compound], the “Effect of I-RTX pre-treatment on Palvanil's reduction of capsaicin-induced wiping” value ([1]; mouse, in vivo) was “completely reverted” and the “Eye-wiping reflexes per se” value ([2]; in vivo) was “did not cause any reflexes per se”.
In the case of `CCCCCCCCCCCCCCCC(=O)NCc1ccc(O)c(OC)c1` [Palvanil, N-(4-hydroxy-3-methoxybenzyl)palmitoylamide], the EC50 ([3]; HEK-293-TRPV1 cells, Fluo-4, read-out: EC50, increase in intracellular calcium) is reported as 0.65 ± 0.04 nM, the “Pre-incubation time at which desensitizing effect reached a maximum” value ([4]; 2 nM Palvanil, 10 nM capsaicin stimulation) is reported as ~50 min and the IC50 ([4]; read-out: IC50, desensitization of TRPV1 to the effect of capsaicin, 10 nM capsaicin, compound given 5 min before) is reported as 0.81 ± 0.07 nM. The “Inhibitory effect on anandamide response” value ([5]; 1 nM compound, 0.5 μM AEA, at both pH values) was > 50%, the IC50 ([5]; 0.5 μM AEA, acid pH (6.5)) was 0.3 ± 0.01 nM and the “Fold more potent at the lower pH” value ([5]; 0.5 μM AEA, pH 6.5 vs pH 7.4) was 90 fold. For the same molecule, the IC50 ([5]; 0.5 μM AEA, physiological pH (7.4)) was 0.9 ± 0.1 nM, the IC50 ([5]; anandamide 0.25 mM (so in the source), acid pH) was 0.5 ± 0.02 nM and the “Capsaicin-induced wiping movements after Palvanil” value (shortened to “Capsaicin-induced wiping movements”) ([1]; Palvanil 10 μg/ml, 1 hour before capsaicin 10 μg/ml) was 8.2±0.9 wiping movements. The “Capsaicin-induced wiping movements” value ([1]; Palvanil 10 μg/ml, 3 hours before capsaicin 10 μg/ml) was 7.0±0.9 wiping movements, the “Capsaicin-induced wiping movements” value ([1]; Palvanil 30 μg/ml, 1 hour before capsaicin 10 μg/ml) was 6.7±0.7 wiping movements and the “Capsaicin-induced wiping movements” value ([1]; Palvanil 30 μg/ml, 3 hours before capsaicin 10 μg/ml) was 6.0±0.8 wiping movements.
In the case of `COc1cc(CNC(=O)CCCC/C=C/C(C)C)ccc1O` [capsaicin, reference compound], the “Speed of TRPV1 activation (time to achieve 90% of total TRPV1 mediated calcium influx)” value ([3]; different concentrations, greatest difference at 1 μM, capsaicin vs Palvanil) is reported as “always significantly faster”, the “Desensitizing effect at different pre-incubation times, compared with Palvanil” value ([4]; 10 nM capsaicin pre-incubation, 10 nM capsaicin stimulation) is reported as “significantly less pronounced desensitizing effect” and the “Wiping movements monitored within 30 seconds” value ([2]; capsaicin solution 10 μg/ml into the eye) is reported as 12±0.9 wiping movements.
